These results are taken from patent US11065265B2, “Compositions of fosaprepitant and methods of preparation” (SPES PHARMACEUTICALS INC., priority 2018, dated 2021).

A short description of data set [1]: Solubility enhancing effect of cyclodextrin derivative on aprepitant in aqueous medium. In kind it is physicochemical.
For data set [2] the following is noted: cited from earlier work.

As for `C[C@@H](O[C@H]1OCCN(Cc2n[nH]c(=O)[nH]2)[C@H]1c1ccc(F)cc1)c1cc(C(F)(F)F)cc(C(F)(F)F)c1` [Aprepitant], the “Increase in Aprepitant Solubility” value in data set [1] (Cyclodextrin Derivative 0 mg/mL) came out at 0%; in data set [1] (Cyclodextrin Derivative 32 mg/mL) it was 105%; in data set [1] (Cyclodextrin Derivative 64 mg/mL) it was 300%; in data set [1] (Cyclodextrin Derivative 128 mg/mL), 748%; in data set [1] (Cyclodextrin Derivative 160 mg/mL) it was 1039%; in data set [1] (Cyclodextrin Derivative 180 mg/mL) it was 1244%. Besides, the “Increase in Aprepitant Solubility” value in data set [1] (Cyclodextrin Derivative 200 mg/mL) came to 1322%; in data set [1] (Cyclodextrin Derivative 255 mg/mL), 1717%. For the same compound, in data set [2] (non-polar solvents such as oils), the “solubility in non-polar solvents such as oils” value is “reasonably high”. Further, the solubility in water result in data set [2] (water) is on record as “very limited”.
